Source: the NIST ThermoML archive (doi:10.1016/j.tca.2014.06.026)
Numbers after ± are expanded uncertainties.

Assay: xn = mol fraction of the nth substance listed
Details: 101 kPa, Liquid; for speed of sound: Frequency=2 MHz, Sing-around technique in a fixed-path interferometer; for viscosity: Oscillating disk viscometry; for mass density: Vibrating tube method

OC1CCCCC1 [cyclohexanol] + CN1CCCC1=O
Details | mass density [kg/m3] | speed of sound [m/s] | viscosity [mPa·s]
303.15 K, x2 = 0 | 941.32 ± 0.12 | 1443.2 ± 0.9 | 41.07 ± 8.2
303.15 K, x2 = 0.1088 | 952.25 ± 0.11 | 1462.3 ± 0.9 | 36.8 ± 7.4
303.15 K, x2 = 0.2155 | 962.68 ± 0.11 | 1480.5 ± 0.9 | 32.6 ± 6.5
303.15 K, x2 = 0.3201 | 973.14 ± 0.11 | 1495.7 ± 0.9 | 28.48 ± 5.7
303.15 K, x2 = 0.4228 | 983.38 ± 0.12 | 1508.8 ± 0.9 | 24.44 ± 4.9
303.15 K, x2 = 0.5235 | 992.24 ± 0.11 | 1520.5 ± 0.9 | 20.47 ± 4.1
303.15 K, x2 = 0.6223 | 999.61 ± 0.11 | 1530.5 ± 0.9 | 16.55 ± 3.3
303.15 K, x2 = 0.7194 | 1005.72 ± 0.11 | 1538.4 ± 0.9 | 12.7 ± 2.5
303.15 K, x2 = 0.8146 | 1011.65 ± 0.11 | 1544.3 ± 1 | 8.912 ± 1.8
303.15 K, x2 = 0.9081 | 1017.47 ± 0.11 | 1549.2 ± 1 | 5.186 ± 1
308.15 K, x2 = 0 | 937.23 ± 0.12 | 1419.6 ± 0.9 | 27.95 ± 5.6
308.15 K, x2 = 0.1088 | 948.65 ± 0.11 | 1440.8 ± 0.9 | 25.09 ± 5
308.15 K, x2 = 0.2155 | 959.48 ± 0.11 | 1458.7 ± 0.9 | 22.27 ± 4.5
308.15 K, x2 = 0.3201 | 970.04 ± 0.12 | 1473.4 ± 0.9 | 19.52 ± 3.9
308.15 K, x2 = 0.4228 | 979.96 ± 0.12 | 1486.2 ± 0.9 | 16.81 ± 3.4
308.15 K, x2 = 0.5235 | 988.83 ± 0.12 | 1497.5 ± 0.9 | 14.15 ± 2.8
308.15 K, x2 = 0.6223 | 996.39 ± 0.11 | 1506.9 ± 0.9 | 11.52 ± 2.3
308.15 K, x2 = 0.7194 | 1002.69 ± 0.11 | 1515.1 ± 0.9 | 8.928 ± 1.8
308.15 K, x2 = 0.8146 | 1008.39 ± 0.11 | 1521.2 ± 0.9 | 6.381 ± 1.3
308.15 K, x2 = 0.9081 | 1014.23 ± 0.11 | 1525.2 ± 0.9 | 3.878 ± 0.78
313.15 K, x2 = 0 | 933.48 ± 0.12 | 1395.2 ± 0.9 | 16.66 ± 3.3
313.15 K, x2 = 0.1088 | 945.29 ± 0.12 | 1418.3 ± 0.9 | 15.01 ± 3
313.15 K, x2 = 0.2155 | 956.55 ± 0.12 | 1436.2 ± 0.9 | 13.39 ± 2.7
313.15 K, x2 = 0.3201 | 967.18 ± 0.12 | 1450.8 ± 0.9 | 11.81 ± 2.4
313.15 K, x2 = 0.4228 | 976.72 ± 0.12 | 1463.7 ± 0.9 | 10.25 ± 2.1
313.15 K, x2 = 0.5235 | 985.29 ± 0.12 | 1475.1 ± 0.9 | 8.714 ± 1.7
313.15 K, x2 = 0.6223 | 992.87 ± 0.11 | 1484.6 ± 0.9 | 7.194 ± 1.4
313.15 K, x2 = 0.7194 | 999.41 ± 0.11 | 1492.4 ± 0.9 | 5.69 ± 1.1
313.15 K, x2 = 0.8146 | 1005.24 ± 0.11 | 1498.2 ± 0.9 | 4.211 ± 0.84
313.15 K, x2 = 0.9081 | 1010.33 ± 0.11 | 1500.6 ± 0.9 | 2.76 ± 0.55
318.15 K, x2 = 0 | 928.11 ± 0.12 | 1370.8 ± 0.9 | 8.888 ± 1.8
318.15 K, x2 = 0.1088 | 940.43 ± 0.12 | 1395.7 ± 0.9 | 8.064 ± 1.6
318.15 K, x2 = 0.2155 | 952.24 ± 0.12 | 1413.7 ± 0.9 | 7.26 ± 1.5
318.15 K, x2 = 0.3201 | 963.21 ± 0.12 | 1428.6 ± 0.9 | 6.472 ± 1.3
318.15 K, x2 = 0.4228 | 972.85 ± 0.12 | 1441.9 ± 0.9 | 5.694 ± 1.1
318.15 K, x2 = 0.5235 | 981.32 ± 0.12 | 1453.3 ± 0.9 | 4.926 ± 0.98
318.15 K, x2 = 0.6223 | 988.87 ± 0.11 | 1462.8 ± 0.9 | 4.163 ± 0.83
318.15 K, x2 = 0.7194 | 995.46 ± 0.11 | 1471.1 ± 0.9 | 3.406 ± 0.68
318.15 K, x2 = 0.8146 | 1001.47 ± 0.11 | 1476.7 ± 0.9 | 2.658 ± 0.53
318.15 K, x2 = 0.9081 | 1006.79 ± 0.11 | 1477.6 ± 0.9 | 1.924 ± 0.38

C1=CCCCC1 [cyclohexene] + CN1CCCC1=O
Details | mass density [kg/m3] | speed of sound [m/s] | viscosity [mPa·s]
303.15 K, x2 = 0 | 801.81 ± 0.15 | 1252.1 ± 0.8 | 0.581 ± 0.12
303.15 K, x2 = 0.1052 | 818.56 ± 0.15 | 1267.5 ± 0.8 | 0.612 ± 0.12
303.15 K, x2 = 0.2091 | 834.84 ± 0.15 | 1285.6 ± 0.8 | 0.653 ± 0.13
303.15 K, x2 = 0.3119 | 851.21 ± 0.15 | 1307.1 ± 0.9 | 0.698 ± 0.14
303.15 K, x2 = 0.4135 | 868.75 ± 0.16 | 1330.4 ± 0.9 | 0.748 ± 0.15
303.15 K, x2 = 0.514 | 889.05 ± 0.17 | 1356.2 ± 0.9 | 0.812 ± 0.16
303.15 K, x2 = 0.6134 | 912.45 ± 0.16 | 1384.5 ± 0.9 | 0.897 ± 0.18
303.15 K, x2 = 0.7116 | 938.12 ± 0.14 | 1417.6 ± 0.9 | 1.009 ± 0.2
303.15 K, x2 = 0.8088 | 964.81 ± 0.13 | 1456.8 ± 0.9 | 1.148 ± 0.23
303.15 K, x2 = 0.9049 | 992.11 ± 0.12 | 1502.7 ± 0.9 | 1.315 ± 0.26
308.15 K, x2 = 0 | 797.25 ± 0.15 | 1224.8 ± 0.8 | 0.549 ± 0.11
308.15 K, x2 = 0.1052 | 811.04 ± 0.15 | 1240.5 ± 0.8 | 0.579 ± 0.12
308.15 K, x2 = 0.2091 | 827.32 ± 0.15 | 1258.2 ± 0.8 | 0.618 ± 0.12
308.15 K, x2 = 0.3119 | 844.1 ± 0.2 | 1278.6 ± 0.8 | 0.663 ± 0.13
308.15 K, x2 = 0.4135 | 862.03 ± 0.16 | 1301.5 ± 0.9 | 0.715 ± 0.14
308.15 K, x2 = 0.514 | 882.54 ± 0.17 | 1326.4 ± 0.9 | 0.775 ± 0.15
308.15 K, x2 = 0.6134 | 906.06 ± 0.16 | 1355.1 ± 0.9 | 0.853 ± 0.17
308.15 K, x2 = 0.7116 | 931.63 ± 0.14 | 1388.3 ± 0.9 | 0.954 ± 0.19
308.15 K, x2 = 0.8088 | 957.89 ± 0.13 | 1426.8 ± 0.9 | 1.081 ± 0.22
308.15 K, x2 = 0.9049 | 985.56 ± 0.12 | 1472.5 ± 0.9 | 1.235 ± 0.25
313.15 K, x2 = 0 | 792.61 ± 0.15 | 1196.6 ± 0.8 | 0.516 ± 0.1
313.15 K, x2 = 0.1052 | 804.12 ± 0.15 | 1212.4 ± 0.8 | 0.551 ± 0.11
313.15 K, x2 = 0.2091 | 819.12 ± 0.15 | 1230.5 ± 0.8 | 0.587 ± 0.12
313.15 K, x2 = 0.3119 | 836.04 ± 0.15 | 1250.4 ± 0.8 | 0.63 ± 0.13
313.15 K, x2 = 0.4135 | 854.81 ± 0.16 | 1273.5 ± 0.8 | 0.68 ± 0.14
313.15 K, x2 = 0.514 | 875.73 ± 0.17 | 1298.8 ± 0.9 | 0.742 ± 0.15
313.15 K, x2 = 0.6134 | 899.06 ± 0.16 | 1327.1 ± 0.9 | 0.818 ± 0.16
313.15 K, x2 = 0.7116 | 924.14 ± 0.14 | 1360.3 ± 0.9 | 0.914 ± 0.18
313.15 K, x2 = 0.8088 | 950.51 ± 0.13 | 1398.7 ± 0.9 | 1.031 ± 0.21
313.15 K, x2 = 0.9049 | 979.38 ± 0.12 | 1444.1 ± 0.9 | 1.171 ± 0.23
318.15 K, x2 = 0 | 788.02 ± 0.15 | 1169.6 ± 0.8 | 0.488 ± 0.098
318.15 K, x2 = 0.1052 | 798.05 ± 0.15 | 1185.2 ± 0.8 | 0.522 ± 0.1
318.15 K, x2 = 0.2091 | 813.05 ± 0.15 | 1202.2 ± 0.8 | 0.558 ± 0.11
318.15 K, x2 = 0.3119 | 829.52 ± 0.15 | 1222.2 ± 0.8 | 0.597 ± 0.12
318.15 K, x2 = 0.4135 | 847.61 ± 0.16 | 1245.2 ± 0.8 | 0.642 ± 0.13
318.15 K, x2 = 0.514 | 868.15 ± 0.17 | 1270.4 ± 0.8 | 0.698 ± 0.14
318.15 K, x2 = 0.6134 | 891.64 ± 0.16 | 1298.6 ± 0.8 | 0.771 ± 0.15
318.15 K, x2 = 0.7116 | 917.16 ± 0.14 | 1330.3 ± 0.9 | 0.856 ± 0.17
318.15 K, x2 = 0.8088 | 943.71 ± 0.13 | 1369.2 ± 0.9 | 0.956 ± 0.19
318.15 K, x2 = 0.9049 | 972.27 ± 0.12 | 1416.1 ± 0.9 | 1.072 ± 0.21
